# Legend:
# [1] = Fluorescence stability and reactivity at various pH; format: physicochemical; details: pH 5 to 10
# [2] = Selectivity toward competing biological species with and without H2S
# Excerpt: The selectivity of Cu-ATSM-FITC(5) was investigated against a variety of potentially competing biological species in the presence and absence of H2S (FIG. 6D).
# H2S in HeLa cells = experiment: Fluorescence imaging of exogenous and endogenous H2S in live HeLa cells; format: cell-based, human
# Excerpt: Next, we investigated the usefulness of Cu-ATSM-FITC(5) for monitoring H2S levels in living cells (FIG. 14).
# [3] = tested on: Human cervical cancer cells (HeLa); experiment: MTT cytotoxicity analysis, HeLa; format: cell-based; details: 1, 10, and 25 μM, 24 hours of incubation
# Description: (§1) The cytotoxicity of Cu-ATSM-FITC(5) was evaluated through 3-(4,5-dimethyl-2-thiazolyl)-2,5-diphenyltetrazolium bromide (MTT; sigma-aldrich) analysis. Human cervical cancer cells (HeLa), human hepatoma cells (HepG2), and human embryonic kidney cells (HEK293) were prepared in 96-well plates at a density of 10,000 cells per well. As compared to the control group treated with PBS alone, they were treated with Cu-ATSM-FITC (5) at increasing concentrations of 1, 10, and 25 μM. Afterwards, they were incubated for 1, 4, and 24 hours (37° C., 5% CO2), respectively. For each treatment time, each well was added with 10 μL of MTT (5 mg/mL in PBS) solution and incubated for 3 hours. The supernatant was carefully aspirated, and the purple insoluble formazan crystals in the wells were dissolved using DMSO for 30 minutes. Absorbance was measured at 550 nm using a spectrophotometer (SPECTROstar Nano, BMG Labtech, Ortenberg, Germany). CuS was also performed four times in a similar manner by using HeLa, HEK293, HepG2, and human brain glioblastoma (U87MG) cells.
# [4] = Fluorescence response of probe to NaHS (sensitivity, reaction rate, detection limit)
# Description: To confirm the sensitivity, Cu-ATSM-FITC(5) was incubated with a wide range of NaHS concentrations (0-100 μM) at 37° C. and the fluorescence intensity was measured (FIG. 6B). […] When reacted with 50 μM NaHS solution, the fluorescence intensity of Cu-ATSM-FITC(5) reached a plateau within 30 seconds (FIG. 6C). In contrast, the reactivity of Cu-ATSM-FITC(5) toward L-cysteine (1 mM) and glutathione (GSH) (10 mM) was minimal, as compared to H2S, even though their concentrations were at least 20 times higher than H2S. The detection limit of Cu-ATSM-FITC(5) was calculated to be 0.20 μM using the regression equation (FIG. 8). The quantum yield was confirmed to be 0.33 according to the equation, as compared to the fluorescein standard value (FIG. 9).
# [5] = tested on: human hepatoma cells (HepG2); experiment: MTT cytotoxicity analysis, HepG2; format: cell-based
# Description: as §1
# mouse brain tissues = details: up to 7 days after injection of high-dose 500 μg; CuS precipitated
# Description: Animals were anesthetized by using isoflurane, and injected with 100 μg of Cu-ATSM-FITC(5) in 100 μL of 10% DMSO/PBS, and 500 μg of Cu-ATSM-FITC(5) in 100 μL of 40% DMSO/PBS, respectively, through tail vein injection. The animals were perfused transcardially with saline 1, 3, and 7 days after the injection. The brains were dissected, fixed in 4% paraformaldehyde, and embedded in paraffin to make blocks. Serial coronal sections in paraffin with the thickness of 7 μm were obtained. The sections were stained with H&E by using a staining kit (BBC ClearView, BBC Eosin Y Alcoholic). The stained brain tissues were photographed under a Carl Ziess microscope at 400× magnification.
# [6] = Measurement of quantum yield versus fluorescein standard; format: physicochemical; details: compared to the fluorescein standard value
# Description: The background levels of methanol used in the experiment were measured by using a SpectraMaxi-3 spectraphotometer, and Cu-ATSM-FITC(5) was measured at concentrations of 0.02, 0.04, 0.06, 0.08, and 0.1 μM. A fluorescein standard line graph was obtained according to the concentration and intensity of Cu-ATSM-FITC(5). The quantum yield was calculated according to the following equation: Φ=ΦST (Grad x/Grad ST) (η×2/ηST 2). Here, the subscripts ST and X represent the measured values of the standard and test solutions, respectively. In addition, Φ represents the quantum yield and η represents the refractive index of the solution.
# [7] = tested on: human embryonic kidney cells (HEK293); experiment: MTT cytotoxicity analysis, HEK293; format: cell-based
# Description: as §1
# [8] = Optical properties (UV-Vis absorbance, fluorescence emission); format: physicochemical; details: without H2S
# Description: The optical properties of the free ligand ATSM-FITC (4) were evaluated. […] When H2S sequestered Cu(II) ions from the copper complex (5) and precipitated CuS, the ATSM-FITC ligand was released and fluorescence was emitted (FIG. 7).
# brain H2S [9] = experiment: PET/CT imaging in Parkinson's disease rat model; format: in vivo, SD rats; details: PET/CT 1 hour after injection of about 1 mCi
# Description: The Parkinson's disease-induced rat model was prepared by taking 7-week-old SD rats and injecting 6-hydroxydopamine (6-OHDA) into the medial forebrain bundle using a Hamilton syringe after drilling a small 1.5 mm hole in the rat's skull near the parietal region at 8 weeks of age.
# In addition, the uptake pattern was also different between normal rats and the Parkinson's disease rat model (FIG. 23).
# [10] = Biodistribution in normal BALB/c mice (γ-counter); format: in vivo
# Description: BALB/c mice (male, 9 weeks old) were used to investigate the systemic distribution and clearance rate of ^64Cu-ATSM-FITC (6). ^64Cu-ATSM-FITC (6) with a radioactivity of 0.56 to 0.74 MBq in a saline solution (5% DMSO, 200 μL) was injected into mice through the tail vein under anesthesia. […] Blood was drawn, and organs comprising heart, lung, muscle, fat, bone, spleen, kidney, liver, intestine, and brain were harvested, weighed, and analyzed by using a γ-counter (Wallac Wizard 1480, PerkinElmer, France). Radioactivity was calculated as percentage of injected dose per gram (% ID/g).
# The distribution of ^64Cu-ATSM-aniline in the body was confirmed by using the same method as described in Experimental Methods 5 and 7 above.
# [11] = Lipophilicity, octanol-PBS partitioning; format: physicochemical
# Description: (§2) The ligand ATSM-FITC(4) was radiolabeled with ^64CuCl2 ions in 0.1M ammonium acetate buffer (pH 6.8) at 60° C., with a radiochemical yield of >97% (FIG. 3). Among the various positron-emitting radioisotopes of copper (^60Cu, ^61Cu, ^62Cu, or ^64Cu), Cu-64 has a moderately long half-life (12.7 hours) and a decay mode favorable for PET imaging (17.8% β+ decay). […] The proportion of demetalized ^64CuS in the intact ^64Cu-ATSM-FITC(6) complex may be easily quantified by radio-TLC analysis. The Rf value of ^64Cu-ATSM-FITC(6) was 0.72 on a silica plate with mobile phase (ethyl acetate methanol (95:5)), and ^64CuS remained at the origin of the TLC plate (FIG. 22). As the concentration of H2S increased, the decomplexation percentage of ^64Cu-ATSM-FITC(6) increased proportionally and reached a plateau at 20 μM of H2S (FIG. 15C). […] The lipophilicity of the radiotracer was measured using the general octanol-PBS partitioning method.
# brain H2S [12] = experiment: LPS neuroinflammation model, PET imaging and γ-counter quantification of brain hemispheres; format: in vivo, mice; details: LPS-treated animals
# Description: Mice were mounted in a stereotaxic frame under isoflurane anesthesia. Sterile saline (control) or LPS (5 mg/mL, Sigma-Aldrich, Saint Louis, MO, USA, catalog number: L2630) was injected unilaterally into the right striatum (anterior-posterior [AP], 0.5 mm, medial) of each mouse by using a 28-gauge Hamilton syringe attached to an automatic microinjector. Injection was carried out at a rate of 0.2 μL/min for 10 minutes. After each injection, the needle was left in place for 5 minutes before being slowly retracted.
# Brain inflammation and control models were prepared 2 days prior to the study on PET imaging (n=5 each). ^64Cu-ATSM-FITC(6) (˜18 MBq, 200 μL of 5% DMSO/PBS) was injected into mice, and the mice were scanned for 10 minutes at 10 minutes after the injection. In addition, Sprague Dawley rats were injected with radiolabeled ^64Cu-ATSM-FITC(6) (˜18 MBq, 200 μL of 5% DMSO/PBS) through the tail vein, and the mice were scanned for 20 minutes at 1 hour after the injection. CT images were generated immediately without the use of additional contrast agents. All PET images were reconstructed by using the Mediso Tera-Tomo 3D iterative algorithm, together with corrections for interaction depth, radionuclide decay, detector normalization, decision dead time, and attenuation.
# [13] = In vitro stability in FBS and PBS (radio-TLC demetalization); format: in vitro ADME; details: 37° C.
# Description: ^64Cu-ATSM-FITC(6) (10 μL, 37 MBq) was first mixed with FBS (500 μL) or PBS (pH 7.4) at the same volume, and the mixture was incubated at 37° C. Demetalization was monitored using radio-TLC (silica, MeOH:EtOAc=5:95) for up to 12 hours.
# Radioactively labeled ^64Cu-ATSM-FITC(6) (10 μL, 37 MBq) was mixed with 100 μL of FBS or PBS at pH 7.4 in the same amount and incubated at 37° C. using a Thermomixer (500 rpm). In addition, demetalization was measured by radio-TLC (silica, MeOH:EtOAC=5:95) every 4 hours for up to 24 hours.
# [14] = Decomplexation of radiolabeled probe by H2S (radio-TLC)
# Description: as §2
# brain H2S [15] = experiment: Animal PET/CT brain imaging, normal and AOAA-treated BALB/c mice; format: in vivo; details: 1 hour after injection
# Description: Male BALB/c mice (6 to 9 weeks old) were purchased from Hyochang Bioscience (Daegu, Korea). All mice were housed at 20 to 24° C. together with sufficient water and commercial food under a 12-h day/night cycle. For studies on H2S inhibition, male BALB/c mice were injected intraperitoneally with AOAA ((O-(carboxymethyl) hydroxylamine hemihydrochloride, 10 mg/kg, Sigma-Aldrich (C13408-1G)), 1 hour before administered with ^64Cu-ATSM-FITC(6) into the tail vein.
# Animal PET/CT images were obtained by using a nanoScan PET/CT scanner (PET 82S, Mediso, Budapest, Hungary). Radiolabeled ^64Cu-ATSM-FITC(6) (˜11 MBq, 200 μL of 5% DMSO/PBS) was injected via tail vein into normal and AOAA-treated BALB/c mice (n=4), and the mice were scanned for 20 minutes at 1 hour after the injection. For PET image-based quantification, regions of interest (ROIs) were manually drawn on the whole brain.
# Detection was performed in 1:3 matching smode with four iterations with six subsets. Analysis of the acquired PET/CT images was performed by using the Mediso InterView Fusion software package. The uptake of ^64Cu-ATSM-FITC(6) in each tissue was normalized to the administered radioactive dose and animal body weight and expressed as the average percent injected dose per gram (% ID/g).
structure (smiles),measurement,setting,value
"CNC([S-])=NN=C(C)C(C)=NN=C([S-])Nc1ccc(-c2c3ccc(=O)cc-3oc3cc(O)ccc23)c(C(=O)O)c1.[Cu+2] [Cu-ATSM-FITC(5), Copper(II) Complex of 2-(6-hydroxy-3-oxo-3H-xanthen-9-yl)-5-((E)-2-((E)-3-(2-(methylcarbamothioyl)hydrazono)butan-2-ylidene)hydrazinecarbothioamido)benzoic Acid]",stability and reactivity over physiological pH range,[1],high stability and reactivity
same,fluorescence intensity with competing species plus NaHS,[2]; NaHS 50 μM added with other biologically abundant species,full fluorescence intensity was observed without interference
same,reactivity (fluorescence signals) with other species,"[2]; biothiols, inorganic sulfur species, reducing agents, nucleophiles, ROS/RNS, absence of H2S",did not show reactivity
same,detection of endogenous H2S induced by L-cysteine,H2S in HeLa cells; L-cysteine 100 μM,successfully detected the increase in endogenous H2S concentration
same,green fluorescence intensity in HeLa cells on addition of NaHS,H2S in HeLa cells; NaHS 50 and 100 μM,linear rise in green fluorescence intensity
same,fluorescence signal in HeLa cells,"H2S in HeLa cells; probe 25 μM, no added H2S",faint fluorescence signal
same,survival rate of HeLa cells,[3],exceeded 85%
same,time for fluorescence intensity to reach a plateau,[4]; 50 μM NaHS solution,≤ 30 s
same,fluorescence enhancement at 524 nm,"[4]; 100 μM NaHS compared to concentration 0, 37° C.",up to 3500 fold
same,reactivity toward L-cysteine and glutathione (GSH) compared to H2S,"[4]; L-cysteine 1 mM, GSH 10 mM",minimal
same,detection limit,"[4]; calculated using the regression equation, H2S",0.20 µM
same,cytotoxicity,[5],No cytotoxicity was observed
same,toxicity in mouse brain tissues (H&E staining),mouse brain tissues,low toxicity
same,quantum yield,[6],0.33
same,cytotoxicity,[7],No cytotoxicity was observed
same,fluorescence signal of the complex,[8],did not show a detectable fluorescence signal
CNC([S-])=NN=C(C)C(C)=NN=C([S-])Nc1ccc(-c2c3ccc(=O)cc-3oc3cc(O)ccc23)c(C(=O)O)c1.[64Cu+2] [^64Cu-ATSM-FITC(6)],uptake in brain regions in Parkinson's disease rat model versus normal rats,brain H2S [9],significantly lower
same,total injected activity found in the whole brain,[10],more than 3.3%
same,brain uptake,"[10]; at 5 minutes, maintained up to 2 hours after injection",greater than 9 % ID/g
same,"uptake in the heart, lungs, and kidneys",[10]; initially high,gradually decreased over time
same,log D7.4,[11],1.70±0.05
same,increase of radioactivity at the injection site (right hemisphere) versus left hemisphere,brain H2S [12],31%
same,stability in FBS and PBS,[13],high stability
same,degradation,"[13]; FBS and PBS, up to 24 hours after incubation",Less than 10%
same,reaction with H2S,[14]; forms insoluble ^64CuS precipitate,reacted immediately
same,H2S concentration at which decomplexation percentage reached a plateau,[14]; radio-TLC,20 µM
same,brain uptake in PET imaging,brain H2S [15]; AOAA-treated mice (10 mg/kg i.p.),11.4±2.0 % ID/g
same,brain uptake in PET imaging,brain H2S [15]; control mice,15.0±1.8 % ID/g

# — patent US20240390529A1, “DUAL-MODE PROBE FOR DETECTING HYDROGEN SULFIDE AND USE THEREOF” (KYUNGPOOK NATIONAL UNIVERSITY INDUSTRY-ACADEMIC COOPERATION …, priority 2022, published 2024)
